Like-named read-outs stand apart in the source and are kept apart here.

For the test, the system named is HCV 1b genotype. The experiment in a line: HCV replicon assay (HCV-neo replicon cells, wild-type). It is filed as cell-based, Hepatitis C virus. The settings on record: HCV 1b genotype replicon. In short, it runs like this: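 Inhibition was tested in replicon-bearing cells, both wild-type HCV-neo and lines with NS5A resistance substitutions, using the O'Boyle et al. 2005 replicon method or luciferase-reporter formats.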
In general terms: A replicon is a self-replicating genome or part of one, used to study replication in cells.

Where [1] appears, read: class symbols, read-out: EC50 Range against HCV 1b.
Where [2] appears, read: Hepatitis C virus, class symbols, read-out: EC50 Range against HCV 1b.
Where [3] appears, read: Hepatitis C virus, read-out: EC50 1b.
[4] abbreviates: Hepatitis C virus, class symbol, read-out: EC50 Range against HCV 1b.

One may read the EC50 as the concentration at which the effect is half-maximal. Take `CN(C)[C@H](C(=O)N1CCC[C@H]1C(=O)Nc1ccc(-c2cnc(-c3ccc(NC(=O)[C@@H]4CCCN4C(=O)[C@H]([C@H](O)c4ccccc4)N(C)C)cc3)o2)cc1)[C@H](O)c1ccccc1` [JR-14, (S,R,2S)-N,N′-(4,4′-(oxazole-2,5-diyl)bis(4,1-phenylene))bis(1-((2S,3R)-2-(dimethylamino)-3-hydroxy-3-phenylpropanoyl)pyrrolidine-2-carboxamide)]: under setting [1], the EC50 lay within 1000 to 10000 nM. For the compound `CN(C)[C@H](C(=O)N1CCC[C@H]1C(=O)Nc1ccc(-c2cnc(-c3ccc(NC(=O)[C@@H]4CCCN4C(=O)[C@H]([C@@H](O)c4ccsc4)N(C)C)cc3)o2)cc1)[C@@H](O)c1ccsc1` [JR-15, (S,S,2S)-N,N′-(4,4′-(oxazole-2,5-diyl)bis(4,1-phenylene))bis(1-((2S,3S)-2-(dimethylamino)-3-hydroxy-3-(thiophen-3-yl)propanoyl)pyrrolidine-2-carboxamide)], the half-maximal effective concentration (EC50) under setting [1] lay in the range of 4.57 to 99 nM. As for `CN(C)[C@H](C(=O)N1CCC[C@H]1C(=O)Nc1ccc(-c2cnc(-c3ccc(NC(=O)[C@@H]4CCCN4C(=O)[C@H]([C@H](O)c4ccsc4)N(C)C)cc3)o2)cc1)[C@H](O)c1ccsc1` [JR-16, (S,R,2S)-N,N′-(4,4′-(oxazole-2,5-diyl)bis(4,1-phenylene))bis(1-((2S,3R)-2-(dimethylamino)-3-hydroxy-3-(thiophen-3-yl)propanoyl)pyrrolidine-2-carboxamide)], the EC50 under setting [1] fell in the range of 1000 to 10000 nM. Turning to `O=C(Nc1ccc(-c2cnc(-c3ccc(NC(=O)[C@@H]4CCCN4C(=O)C4CSC5CCC(=O)N54)cc3)o2)cc1)[C@@H]1CCCN1C(=O)C1CSC2CCC(=O)N21` (stereo partly drawn) [JR-17, (2S,2′S)-N,N′-(2,5-oxazolediyldi-4,1-phenylene)bis[1-[(hexahydro-5-oxopyrrolo[2,1-b]thiazol-3-yl)carbonyl]-2-pyrrolidinecarboxamide]], the 50% effective concentration (EC50) under setting [2] was 1000 to 10000 nM. The same measure, in the same setting: in the case of `CC(C(=O)N1CCC[C@H]1C(=O)Nc1ccc(-c2cnc(-c3ccc(NC(=O)[C@@H]4CCCN4C(=O)C(C)N4C(=O)C5C6CCC(C6)C5C4=O)cc3)o2)cc1)N1C(=O)C2C3CCC(C3)C2C1=O` (stereo partly drawn) [JR-18, (2S,2′S)-N,N′-(2,5-oxazolediyldi-4,1-phenylene)bis[1-[2-(octahydro-1,3-dioxo-4,7-methano-2H-isoindol-2-yl)-1-oxopropyl]-2-pyrrolidinecarboxamide]] it was 1000 to 10000 nM; in that of `CC(C)C(C(=O)N1CCC[C@H]1C(=O)Nc1ccc(-c2cnc(-c3ccc(NC(=O)[C@@H]4CCCN4C(=O)C(C(C)C)N4C(=O)C5C6C=CC(C6)C5C4=O)cc3)o2)cc1)N1C(=O)C2C3C=CC(C3)C2C1=O` (stereo partly drawn) [JR-19, (2S,2′S)-N,N′-(2,5-oxazolediyldi-4,1-phenylene)bis[1-[2-(1,3,3a,4,7,7a-hexahydro-1,3-dioxo-4,7-methano-2H-isoindol-2-yl)-3-methyl-1-oxobutyl]-2-pyrrolidinecarboxamide]], 100 to 999 nM; in that of `O=C(Nc1ccc(-c2cnc(-c3ccc(NC(=O)[C@@H]4CCCN4C(=O)CN4C(=O)OC[C@@H]4c4ccccc4)cc3)o2)cc1)[C@@H]1CCCN1C(=O)CN1C(=O)OC[C@@H]1c1ccccc1` [JR-20, (2S,2′S)-N,N′-(2,5-oxazolediyldi-4,1-phenylene)bis[1-[[(4S)-2-oxo-4-phenyl-3-oxazolidinyl]acetyl]-2-pyrrolidinecarboxamide]], 1000 to 10000 nM. Take `O=C(Nc1ccc(-c2cnc(-c3ccc(NC(=O)[C@@H]4CCCN4C(=O)CN4C(=O)OC[C@H]4c4ccccc4)cc3)o2)cc1)[C@@H]1CCCN1C(=O)CN1C(=O)OC[C@H]1c1ccccc1` [JR-21, (2S,2′S)-N,N′-(2,5-oxazolediyldi-4,1-phenylene)bis[1-[[(4R)-2-oxo-4-phenyl-3-oxazolidinyl]acetyl]-2-pyrrolidinecarboxamide]]: under setting [2], the EC50 is 1000 to 10000 nM.

`O=C(Nc1ccc(-c2cnc(-c3ccc(NC(=O)[C@@H]4CCCN4C(=O)CN4C(=O)OC(c5ccccc5)C4=O)cc3)o2)cc1)[C@@H]1CCCN1C(=O)CN1C(=O)OC(c2ccccc2)C1=O` (stereo partly drawn) [JR-22, (2S,2′S)-N,N′-(2,5-oxazolediyldi-4,1-phenylene)bis[1-[(2,4-dioxo-5-phenyl-3-oxazolidinyl)acetyl]-2-pyrrolidinecarboxamide]]: the EC50 is, setting by setting: under setting [2], 1000 to 10000 nM; under setting [3], 1720 nM. Regarding `CC(=O)N1CCC[C@H]1C(=O)Nc1ccc(-c2cnc(-c3ccc(NC(=O)[C@@H]4CCCN4C(=O)Cc4ccccc4)cc3)o2)cc1` [MS-1, (2S)-1-acetyl-N-(4-(2-(4-((((2S)-1-(phenylacetyl)-2-pyrrolidinyl)carbonyl)amino)phenyl)-1,3-oxazol-5-yl)phenyl)-2-pyrrolidinecarboxamide], the EC50 under setting [4] is 100 to 999 nM.

In the case of `CC(=O)N1CCC[C@H]1C(=O)Nc1ccc(-c2cnc(-c3ccc(NC(=O)[C@@H]4C[C@@H](OC(C)(C)C)CN4C(=O)OCc4ccccc4)cc3)o2)cc1` [MS-2, benzyl (2S,4R)-2-((4-(5-(4-((((2S)-1-acetyl-2-pyrrolidinyl)carbonyl)amino)phenyl)-1,3-oxazol-2-yl)phenyl)carbamoyl)-4-tert-butoxy-1-pyrrolidinecarboxylate], the EC50 under setting [4] was 100 to 999 nM. Same read-out and setting: the same measure for `CC(=O)N1CCC[C@H]1C(=O)Nc1ccc(-c2cnc(-c3ccc(NC(=O)[C@@H]4C[C@@H](O)CN4C(=O)OCc4ccccc4)cc3)o2)cc1` [MS-3, benzyl (2S,4R)-2-((4-(5-(4-((((2S)-1-acetyl-2-pyrrolidinyl)carbonyl)amino)phenyl)-1,3-oxazol-2-yl)phenyl)carbamoyl)-4-hydroxy-1-pyrrolidinecarboxylate]: 100 to 999 nM.

For the compound `CC(=O)N1CCC[C@H]1C(=O)Nc1ccc(-c2cnc(-c3ccc(NC(=O)C4CCN(C(=O)OCc5ccccc5)C4)cc3)o2)cc1` (stereo partly drawn) [MS-4, benzyl 3-((4-(5-(4-((1-acetyl-L-prolyl)amino)phenyl)-1,3-oxazol-2-yl)phenyl)carbamoyl)-1-pyrrolidinecarboxylate], the EC50 was 100 to 999 nM under setting [4] and 901 nM under setting [3]. On to `CC(=O)N1CCC[C@H]1C(=O)Nc1ccc(-c2cnc(-c3ccc(NC(=O)C4CC(=O)N(CCc5cccs5)C4)cc3)o2)cc1` (stereo partly drawn) [MS-5, (2S)-1-acetyl-N-[4-[2-[4-[[[5-oxo-1-[2-(2-thienyl)ethyl]-3-pyrrolidinyl]carbonyl]amino]phenyl]-5-oxazolyl]phenyl]-2-pyrrolidinecarboxamide], for which the EC50 under setting [4] was in the range of 100 to 999 nM. In the case of `CC(=O)N1CCC[C@H]1C(=O)Nc1ccc(-c2ncc(-c3ccc(NC(=O)[C@@H]4CCCN4C(=O)Cc4ccccc4)cc3)o2)cc1` [MS-6, (2S)-1-acetyl-N-(4-(5-(4-((((2S)-1-(phenylacetyl)-2-pyrrolidinyl)carbonyl)amino)phenyl)-1,3-oxazol-2-yl)phenyl)-2-pyrrolidinecarboxamide], the EC50 reads like this: under setting [4], 100 to 999 nM; under setting [3], 188 nM. With `CC(=O)N1CCC[C@H]1C(=O)Nc1ccc(-c2cnc(-c3ccc(NC(=O)[C@@H]4C=CCN4C(=O)c4cccs4)cc3)o2)cc1` [MS-7, (2S)-N-[4-[5-[4-[[[(2S)-1-acetyl-2-pyrrolidinyl]carbonyl]amino]phenyl]-2-oxazolyl]phenyl]-2,5-dihydro-1-(2-thienylcarbonyl)-1H-pyrrole-2-carboxamide], the EC50 under setting [4] fell in the range of 1000 to 10000 nM. Consider `O=C(Nc1ccc(-c2nnc(-c3ccc(NC(=O)[C@@H]4CCCN4C(=O)OCc4ccccc4)cc3)o2)cc1)[C@@H]1CCCN1C(=O)OCc1ccccc1` [MS-8, (2S,2′S)-2,2′-[1,3,4-oxadiazole-2,5-diylbis(4,1-phenyleneiminocarbonyl)]bis-1-pyrrolidinecarboxylic acid, bis(phenylmethyl) ester], for which the half-maximal effective concentration (EC50) was 4.57 to 99 nM under setting [4] and 90 nM under setting [3].

These data come from patent US8735398B2 (Bristol-Myers Squibb Company, priority 2009, dated 2014).
